Data published in patent US20040110758A1, “4,6-Diaminosubstituted-2-[oxy or aminoxy]-[1,3,5]triazines as protein tyrosine kinase inhibitors” (priority 2002, published 2004).

Tests used:
KDR [1] = target: T1, KDR (Homo sapiens, UniProt P35968); experiment: KDR Enzymatic Assay (fluorescence polarization competition immunoassay); format: biochemical; conditions: for IC50: 1.6 nM KDR, 10 μM ATP, 10 μg/ml poly(E4,Y), averages of three independent measurements, read-out: IC50 Enzyme; for protein tyrosine kinase (KDR) inhibition, potency in words: text commentary on Table 1
Experimental: KDR Enzymatic Assay. A fluorescence polarization competition immunoassay was used to determine the compound potency for KDR. The assay was performed in black 96-well microplates (LJL BioSystems). The assay buffer used was 100 mM HEPES, pH 7.5, 1 mM DTT, 0.01% (v/v) Tween-20. Compounds were diluted in assay buffer containing 4% DMSO just prior to the assay. […] The kinase reaction was initiated by adding 2 μl of 8 nM KDR in assay buffer.
The plates were incubated at room temperature for 5 min. At the end of the incubation, the reaction was quenched with 1.2 μl of 50 mM EDTA. Following a 5-min incubation, each well received 10 μl of a 1:1:3 mixture of anti-phosphotyrosine antibody, 10×, PTK green tracer, 10× (vortexed), FP dilution buffer, respectively (all from PanVera, cat. # P2837). The plate was covered, incubated for 30 min at room temperature and the fluorescence polarization was read on an ANALYST™ HT Assay Detection System (LJL Biosystems, Sunnyvale, Calif.). The instrument settings were: 485 nm excitation filter; 530 nm emission filter; Z height: middle of well; G factor: 0.93. […] The IC50 values reported are the averages of three independent measurements.
Target sequence in this assay (P35968 20-1356, species assumed): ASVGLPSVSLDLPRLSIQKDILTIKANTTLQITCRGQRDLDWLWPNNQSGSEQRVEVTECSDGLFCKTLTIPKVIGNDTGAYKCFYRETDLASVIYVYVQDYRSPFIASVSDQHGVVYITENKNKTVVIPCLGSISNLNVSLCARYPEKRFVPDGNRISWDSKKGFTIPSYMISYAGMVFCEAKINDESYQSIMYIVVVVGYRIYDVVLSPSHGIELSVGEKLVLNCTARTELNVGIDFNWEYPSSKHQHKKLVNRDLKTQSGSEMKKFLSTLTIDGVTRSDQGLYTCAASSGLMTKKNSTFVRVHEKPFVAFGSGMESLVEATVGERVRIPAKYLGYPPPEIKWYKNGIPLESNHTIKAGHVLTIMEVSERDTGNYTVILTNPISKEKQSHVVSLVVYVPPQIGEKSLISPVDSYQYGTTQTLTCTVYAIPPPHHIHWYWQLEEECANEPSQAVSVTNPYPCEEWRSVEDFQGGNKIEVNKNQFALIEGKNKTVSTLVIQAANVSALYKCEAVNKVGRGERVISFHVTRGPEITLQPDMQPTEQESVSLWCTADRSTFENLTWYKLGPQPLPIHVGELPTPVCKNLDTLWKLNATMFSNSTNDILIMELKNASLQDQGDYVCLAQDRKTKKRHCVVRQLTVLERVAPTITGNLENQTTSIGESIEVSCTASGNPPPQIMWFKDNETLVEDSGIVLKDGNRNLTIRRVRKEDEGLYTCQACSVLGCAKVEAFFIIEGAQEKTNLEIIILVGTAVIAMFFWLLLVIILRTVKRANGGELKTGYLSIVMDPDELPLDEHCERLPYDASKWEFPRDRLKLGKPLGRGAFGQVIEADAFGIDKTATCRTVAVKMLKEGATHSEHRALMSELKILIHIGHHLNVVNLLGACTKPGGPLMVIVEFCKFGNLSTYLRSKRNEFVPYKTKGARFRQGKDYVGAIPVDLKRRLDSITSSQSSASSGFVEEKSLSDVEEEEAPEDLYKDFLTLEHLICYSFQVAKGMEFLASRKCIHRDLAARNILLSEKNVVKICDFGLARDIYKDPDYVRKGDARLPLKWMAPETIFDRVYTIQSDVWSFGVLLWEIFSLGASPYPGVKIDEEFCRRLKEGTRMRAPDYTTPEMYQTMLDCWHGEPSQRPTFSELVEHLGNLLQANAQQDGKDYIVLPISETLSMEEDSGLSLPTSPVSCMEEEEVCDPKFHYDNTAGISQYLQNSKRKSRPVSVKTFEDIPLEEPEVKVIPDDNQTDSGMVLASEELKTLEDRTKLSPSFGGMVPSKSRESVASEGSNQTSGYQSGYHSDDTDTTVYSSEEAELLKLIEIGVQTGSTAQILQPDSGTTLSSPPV

KDR [2] = target: T1, KDR; experiment: KDR Cell-Based Assay (VEGF-stimulated MAP kinase activation in HUVEC); set-up: which express endogenous Flk-1(KDR); endogenous in cells; host or cells: HUVEC (human umbilical vein endothelial cells); conditions: compounds 30 minutes prior to 25 ng/ml VEGF for 10 minutes, phosphorylated MAP kinase immunoblot
Experimental: KDR Cell-Based Assay. To determine the effect of the test compounds on KDR function in cells, VEGF-stimulated MAP kinase activation in human umbilical vein endothelial cells (HUVEC), which express endogenous Flk-1(KDR), was examined. HUVECs were grown to confluence in EMB-2 endothelial cell media (Biowhittaker Inc., Walkersville, Md.) at 37° C. and 5% CO2. Confluent, quiescent HUVECs were treated with the test compounds 30 minutes prior to stimulation with 25 ng/ml VEGF for 10 minutes at 37° C. These cells were then lysed in HNTG buffer (50 mM HEPES, 150 mM NaCl, 1% triton-X-100, 1.5 mM MgCl2, 10% glycerol, 10 mM NaF, 1 mM EDTA, 10 mM sodium pyrophosphate, 1 uM PMSF and 250 uM NaVO4). Cell lysates (40 ug total protein) were separated by SDS-PAGE and transferred to nitrocellulose. Immunoblots were probed with a polyclonal antibody to phosphorylated MAP kinase (Cell Signaling Technologies, Woburn, Mass.) and alkaline phosphatase conjugated secondary antibody (Biorad Labs, Hercules, Calif.). Immunoblot detection was done by measuring the fluorescent product of the alkaline phosphatase reaction with the substrate 9H-(1,3-dichloro-9,9-dimethylacridin-2-one-7-yl) phosphate, diammonium salt (DDAO phosphate) (Molecular Probes, Eugene, Oreg.) using a Molecular Dynamics Typhoon Imaging system (Molecular Dynamics, Sunnyvale, Calif.). Quantitation of DDAO phosphate signal and IC50 determinations were done with Molecular Dynamics ImageQuant software.
Target sequence in this assay (P35968 20-1356): as the sequence (P35968 20-1356, species assumed) above

Row | IC50 (KDR [1]) [nM] | protein tyrosine kinase (KDR) inhibition, potency in words (KDR [1]) | IC50 (KDR [2]) [nM] | SMILES
1 | 1000 to 15000 |  |  | CC(C)(Nc1nc(Nc2ccc3ncsc3c2)nc(OCc2ccccc2)n1)c1ccccc1 [Example 18, N-(Benzothiazol-6-yl)-6-benzyloxy-N′-(1-methyl-1-phenylethyl)-[1,3,5]triazine-2,4-diamine]
2 | 1000 to 15000 |  |  | COc1nc(Nc2ccc3ncsc3c2)nc(NC(C)(C)c2ccccc2)n1 [Example 17, N-(Benzothiazol-6-yl)-6-methoxy-N′-(1-methyl-1-1-phenylethyl)-[1,3,5]triazine-2,4-diamine]
3 | 1000 to 15000 |  |  | CC(C)(Nc1ncnc(Nc2ccc3ncsc3c2)n1)c1ccccc1 [Example 16, N-(Benzothiazol-6-yl)-N′-(1-methyl-1-phenylethyl)-[1,3,5]triazine-2,4-diamine]
4 | 1000 to 15000 |  |  | CC(C)(Nc1nc(N)nc(Nc2ccc3ncsc3c2)n1)c1ccccc1 [Example 15, N-(Benzothiazol-6-yl)-N′-(1-methyl-1-phenylethyl)-[1,3,5]triazine-2,4,6-triamine]
5 | < 1000 |  | 1000 to 15000 | CC(C)(Nc1nc(NO)nc(Nc2ccc3ncsc3c2)n1)c1ccccc1 [Example 14]
6 | < 1000 |  | 1000 to 15000 | CN(c1ccc2cn[nH]c2c1)c1nc(O)nc(Nc2ccc3ncsc3c2)n1 [Example 11]

Second part, the compound before the results:

Row | SMILES | IC50 (KDR [1]) [nM] | protein tyrosine kinase (KDR) inhibition, potency in words (KDR [1]) | IC50 (KDR [2]) [nM]
7 | Oc1nc(Nc2ccc3ncsc3c2)nc(N2CCSCC2c2ccccc2)n1 (stereo not shown) [Example 10, 4-(Benzothiazol-6-ylamino)-6-(3-phenyl-thiomorpholin-4-yl)-[1,3,5]triazin-2-ol] | < 1000 | potent inhibitors | 1000 to 15000
8 | Oc1nc(Nc2ccc3ncsc3c2)nc(N2CCSC(c3ccccc3)C2)n1 (stereo not shown) [Example 9, 4-(Benzothiazol-6-ylamino)-6-(2-phenyl-thiomorpholin-4-yl)-[1,3,5]triazin-2-ol] | < 1000 | potent inhibitors | 1000 to 15000
9 | Oc1nc(NCc2ccccc2)nc(Nc2ccc3ncsc3c2)n1 [Example 2, 4-(Benzothiazol-6-ylamino)-6-(benzylamino)-[1,3,5]triazin-2-ol] | 1000 to 15000 | less active than Examples 3 and 4 | 
10 | Oc1nc(Nc2ccc3ncsc3c2)nc(N2CCCC2c2ccccc2)n1 (stereo not shown) [Example 8, 4-(Benzothiazol-6-ylamino)-6-(2-phenyl-pyrrolidin-1-yl)-[1,3,5]triazin-2-ol] | < 1000 |  | 1000 to 15000
11 | CN(CCc1ccccn1)c1nc(O)nc(Nc2ccc3ncsc3c2)n1 [Example 6, 4-(Benzothiazol-6-ylamino)-6-[methyl-(2-pyridyl-2-ylethyl)amino]-[1,3,5]triazin-2-ol] | < 1000 |  | 1000 to 15000
12 | CC(C)(Nc1nc(O)nc(Nc2ccc3ncsc3c2)n1)c1ccccc1 [Example 5] | < 1000 | one of the most potent protein tyrosine kinase inhibitors tested | < 1000
13 | C[C@@H](Nc1nc(O)nc(Nc2ccc3ncsc3c2)n1)c1ccccc1 [Example 3, (R)-4-(Benzothiazol-6-ylamino)-6-(1-phenylethylamino)-[1,3,5]triazin-2-ol] | < 1000 | more potent than the corresponding S-enantiomer | 1000 to 15000
14 | C[C@H](Nc1nc(O)nc(Nc2ccc3ncsc3c2)n1)c1ccccc1 [Example 4, (S)-4-(Benzothiazol-6-ylamino)-6-(1-phenylethylamino)-[1,3,5]triazin-2-ol] | 1000 to 15000 |  | 
15 | CC(C)(Nc1nc(O)nc(Nc2ccc3ncccc3c2)n1)c1ccccc1 [Example 7, 4-(1-methyl-1-phenylethylamino)-6-(guinolin-6-ylamino)-[1,3,5]triazin-2-ol] | < 1000 |  | 1000 to 15000
16 | CCN(Cc1ccccc1)c1nc(O)nc(Nc2ccc3ncsc3c2)n1 [Example 1, 4-(Benzothiazol-6-ylamino)-6-(N-ethylbenzylamino)-[1,3,5]triazin-2-ol] | < 1000 |  | < 1000
